Reference: US20240316008A1, “TREATMENT OF SYSTEMIC IMMUNE ACTIVATION SYNDROMES” (TRANQUIS THERAPEUTICS, INC., priority 2020, published 2024)
Where a name gives a salt, the structure may show the parent alone.

Tests used:
[1] = test system: ALS; details: transgenic mouse model of ALS; cited from earlier work
[2] = test system: TNFα; assay: TNFα release by LPS-stimulated BV2 cells (ELISA); type: cell-based, murine; details: BV-2 cells, ELISA, concentration-response
Procedure: First, 100 μl of supernatant was removed from Cell Plate and transferred to a Dilution Plate, which was then centrifuged at 216×g for 10 minutes to remove particulates. The dilution plate was either assayed immediately or aliquots were taken and stored at stored at ≤−20° C.; repeated freeze-thaw cycles were avoided.
Next, a standard curve was prepared by first pipetting 900 ul of Calibrator Diluent RD5K into the 700 pg/mL tube, followed by 200 μl of the appropriate calibrator diluent in the remaining tubes. The stock solution was used to produce a dilution. The resulting tubes were then thoroughly mixed. The Mouse TNFα Standard (700 pg/mL) served as the high standard, and the Calibrator Diluent RD5T served as the zero standard at 0 pg/ml.
Assay Diluent RD1-63 (50 ul) was then added to the center of each well and mixed before and during its use. Then, 50 ul of either standard, control, or sample was added to the center of each well, and covered with adhesive strip. The plate was then mixed for 1 minute and incubated for 2 hours at room temperature.
Each well was then aspirated and washed by filling each well with Wash Buffer (400 ul) five times. After the last wash, the remaining Wash Buffer was removed by aspirating or decanting. TNFα […] conjugate (100 ul) was then added to each well, covered with adhesive strip, incubated for 2 hours at room temperature, and washed and/or aspirated five times.
Substrate solution (100 ul) was then added to each well, incubated in the dark for 30 minutes at room temperature, followed by addition of 100 μl of Stop Solution and mixed. The optical density of each well was determined within 30 minutes by using a microplate reader set to 450 nm.
Plates were read on a Spectrostar Nano machine with built-in MARS data analysis at […].
For TNFα ELISA, the BV-2 cells were very responsive to low concentrations of LPS. A concentration range of 0.1 ng/ml to 1,000 ng/ml was tested. 0.3 ng/ml LPS produced enough TNFα release (8-10 fold above background) from these cells after 22 hours stimulation without saturating the linear range of the ELISA detection system. If higher LPS concentrations are used for stimulating BV-2 cells, a […] is advised to stay within the linear range of the detection system. The current TNFα protocol uses 10,000 cells per well in 96 well plate. A cell count titration can optimize S/B ratio. Miniaturization from 96 well to 384 well is also feasible with this assay.
The TNFα ELISA assay is described in Example 5. The IL-6 assay is described below.

[3] = test system: IL-6; assay: IL-6 secretion from LPS-stimulated BV2 cells (ELISA); type: cell-based, murine; details: BV-2 cells, concentration-response
Procedure: [1] First, 100 μl of supernatant from cell plate was removed and transferred to a dilution plate, followed by centrifugation of the dilution plate at 216×g for 10 minutes to remove particulates. The dilution plate was then either assayed immediately or aliquots were taken and stored at ≤−20° C.; repeated freeze-thaw cycles should be avoided. Mouse IL-6 Standard (500 pg/mL) served as the high standard, and the Calibrator Diluent RD5T served as the zero standard at 0 pg/ml. Assay Diluent RD1-14 (50 μl) was then added to the center of each well and mixed before and during its use. Then, 50 μl of standard, control, or sample was added to the center of each well, and covered with adhesive strip. The plate was then mixed for 1 minute and incubated for 2 hours at room temperature. Each well was then aspirated and washed by filling each well with wash buffer (400 ul) five times. After the last wash, the remaining Wash Buffer was removed by aspirating or decanting. Mouse IL-6 conjugate (100 ul) was then added to each well, covered with adhesive strip, incubated for 2 hours at room temperature, and washed and/or aspirated five times.
Substrate solution (100 ul) was then added to each well, incubated in the dark for 30 minutes at room temperature, followed by addition of 100 ul of Stop Solution and mixed. The optical density of each well was determined within 30 minutes by using a microplate reader set to 450 nm.

[4] = test system: sepsis; assay: Mouse model of sepsis / hyperinflammation (virus followed by LPS, as described in Wang); details: mice, intravenous, various doses
Procedure: Briefly, mice are anesthetized with a ketamine/xylazine mixture. A virus, such as a coronavirus, influenza virus, rhinovirus, respiratory syncytial virus, metapneumovirus, adenovirus, or a boca virus, is administered. The virus may be administered intranasally dropwise.
Next, LPS diluted in a buffer, such as PBS, is injected intraperitoneally at specific doses.
To provide comparators for assessing the effects of TQS-168 and its analogs, groups of positive control mice are treated with one or more antibodies against pro-inflammatory cytokines of interest: anti-NK1.1 antibody (PK136; Bio X Cell) diluted in PBS is injected at 100 μg per injection (100 μL) retro-orbitally concurrently with each challenge; anti-IFNγ antibody (XMG1.2, Bio X Cell) is diluted in PBS and injected at 500 μg per injection (100 μL) retro-orbitally concurrently with each challenge; anti-IL6R (15A7.10 mg/kg; Bio X Cell), anti-TNFα (XT3.11, 500 μg per injection; Bio X Cell), anti-IFNαR (MAR1-5A3, 10 mg/kg; Bio X Cell), and anti-IL1β (B122, 500 μg per injection; Bio X Cell) are injected retro-orbitally. For a negative control, isotype antibody is injected retro-orbitally.
The pro-inflammatory cytokines can be measured using the ELISA assay described in Example 1.

[5] = test system: 12 human primary cell-based systems; details: 5000 μM, comparator profile; cited from earlier work

Row | SMILES | disease onset [1] | lifespan [1] | LPS-stimulated TNFα secretion [2] | LPS-stimulated IL-6 secretion [3] | circulating concentrations of pro-inflammatory cytokines [4] | hyperinflammatory symptoms [4] | T-cell proliferation, IgG, TNFα, and IL-8 [5]
1 | CC(=O)N(O)CCCCCNC(=O)CCC(=O)N(O)CCCCCNC(=O)CCC(=O)N(O)CCCCCN [Deferoxamine, deferoxamine mesylate] | delay | extend |  |  |  |  | 
2 | CC(C)(C)c1ccc(-c2nc3ccncc3[nH]2)cc1 [TQS-234] |  |  | decrease | decrease |  |  | 
3 | CC(C)(C)c1ccc(-c2nc3c(F)cc(F)cc3[nH]2)cc1 [TQS-235] |  |  | decrease | decrease | effective in reducing | effective in reducing | 
4 | CC(C)(C)c1ccc(-c2nc3cc(C(F)(F)F)ccc3[nH]2)cc1 [TQS-236] |  |  | decrease | decrease |  |  | 
5 | CC(C)(C)c1cccc(-c2nc3c(F)cc(F)cc3[nH]2)c1 [TQS-237] |  |  | decrease | decrease | effective in reducing | effective in reducing | 
6 | CC(C)(C)c1ccc(-c2cn3ccccc3n2)cc1 [TQS-238] |  |  | decrease | decrease |  |  | 
7 | [2H]c1c([2H])c([2H])c2[nH]c(-c3ccc(C(C)(C)C)cc3)nc2c1[2H] [TQS-239] |  |  | decrease | decrease |  |  | 
8 | CC(C)(C)c1ccc(-c2nc3c(F)c(F)c(F)cc3[nH]2)cc1 [TQS-240] |  |  | decrease | decrease | effective in reducing | effective in reducing | 
9 | CN(C)C(=N)N=C(N)N [metformin, metformin hydrochloride] |  |  |  |  |  |  | inhibit
